The record followed here is patent publication US20260159474A1, “Aminoindane Compounds and Compositions and Methods of Their Therapeutic Use” (Solvonis Therapeutics Ireland Holdings Limited, priority 2021, published 2026).

For series [1], the target named is T1, CYP2B6 (Homo sapiens, UniProt P20813).
T1 construct: purchased Life Technologies P3028; host or cells: Baculosomes
T1 sequence (P20813 1-491): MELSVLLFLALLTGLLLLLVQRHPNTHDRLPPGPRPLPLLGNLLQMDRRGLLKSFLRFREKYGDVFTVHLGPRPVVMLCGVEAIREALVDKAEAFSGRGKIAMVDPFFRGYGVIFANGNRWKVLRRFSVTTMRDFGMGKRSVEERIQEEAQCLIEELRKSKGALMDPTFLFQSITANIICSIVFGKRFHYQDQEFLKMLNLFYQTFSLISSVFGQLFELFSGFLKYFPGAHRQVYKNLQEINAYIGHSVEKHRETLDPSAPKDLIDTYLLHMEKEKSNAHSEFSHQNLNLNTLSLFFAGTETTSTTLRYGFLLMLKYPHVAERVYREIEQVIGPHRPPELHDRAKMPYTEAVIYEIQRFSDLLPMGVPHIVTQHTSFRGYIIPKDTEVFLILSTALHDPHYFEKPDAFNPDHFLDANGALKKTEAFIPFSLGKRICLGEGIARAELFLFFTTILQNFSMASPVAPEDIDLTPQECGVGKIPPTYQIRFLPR
Kind of series: CYP450 inhibition, fluorescent probe substrate. The class given is in vitro ADME. The procedure: (§1) Methods: Recombinant human CYP450 isoenzymes were used to metabolize pro-fluorescent probe substrates to fluorescent products. IC50 values determined from the effect of test compounds on the metabolism of these probe substrates were then used to determine inhibitory potency against CYP450 isoforms. The chemical reagents included:
(§2) The test system was based on a three-step procedure with a “mix and read” format, where reaction and reading were performed at 37° C. The assays described herein measure in vitro inhibitory effects (pIC50) of compounds on the human P450 isoforms (1A2, 2B6, 2C8, 2C9, 2C19, 2D6, 3A4) expressed in recombinant microsomes. Pro-fluorescent probe substrates were metabolized to fluorescent products by the enzymes. Fluorescence was measured in kinetic mode (1 read/minutes for 10 minutes), and the fluorescence rate was calculated.
(§3) Inhibition of the fluorescent signal resulting from P450 activation indicated inhibitory activity and facilitated calculation of the compound pIC50. A quality check was included in each compound plate, wherein the signal window was monitored by performing Z′ calculations ([…] ) and the antagonist potency of internal standards was within the pIC50±2SD range. Concentration response curves (CRCs) of compounds were run on two different test occasions (n 2) by preparing serial dilutions from the same compound stock solution.
(§4) To prepare the compound plate, test compounds serial dilutions 1 to 3 were performed from a 10 mM stock solution in DMSO by Biomek FX to generate 10 point CRC with the highest concentrations in columns 3 and 13.
(§5) 100% DMSO was placed in columns 1 and 2 and used for assay low controls. CYP inhibitor (10 mM miconazole solution in DMSO) was placed in columns 23 and 24 and served as an assay high controls. 1 μL copy plates were then stamped into V-bottom drug plates at a concentration that is 200 fold the final assay concentration. The copy plates were diluted prior to the experiment with assay buffer to reach 4 times the final assay concentration (2% w/v DMSO).
(§6) A reference compound (e.g., miconazole) was included in each compound plate in row A, column 3 and 13. The reference compound was diluted and stamped together with test compounds. The final concentrations of the 10 point CRCs of test compounds in the assay plate were 5.00E-05; 1.67E-05; 5.56E-06; 1.85E-06; 6.17E-07; 2.06E-07; 6.86E-08; 2.29E-08; 7.62E-09 and 2.54E-09, respectively. All solutions were prepared immediately before the assay.
(§7) The CYP3A4 and CYP2C8 were assayed using the Vivid CYP3A4 Baculosomes, CYP2C8 Baculosomes and Vivid DBOMF Substrate (Life Technologies, cat. P2377, PV6138 and P2974 respectively), while 2B6 is tested by Vivid CYP2B6 Baculosomes and Vivid BOMCC Substrate (Life Technologies, cat. P3028 and P2975). Test compounds were prepared as specified above.
(§8) The assay plate was prepared by preparing pre-mix by diluting P450 Baculosomes Plus Reagent and Vivid Regeneration System in 1× Vivid CYP450 Reaction Buffer (Potassium Phosphate Buffer, 100 mM, pH 8.0). Briefly, 8 μL/ml of P450 Baculosomes Plus Reagent and 16 μL/ml of Vivid Regeneration System were added to achieve the appropriate final concentrations and then mixed by inversion. 30 μL of pre-mix were dispensed into each well of a black, 384-well plate.
(§9) Next, 10 μL/well from the compound plate was added and incubated for 10 minutes at 37° C. on a plate shaker, while a mixture of Vivid Substrate and Vivid NADP+ in Vivid CYP450 Reaction Buffer was prepared. The reaction was initiated by adding 10 μL/well of the Vivid Substrate and NADP+ mixture, before transferring the plate into the fluorescent plate reader (immediately, within 2 minutes), and fluorescence was monitored every minute for 10 minutes according to the specific protocol.
(§10) Regarding data analysis, inhibition is expressed as a percentage. […] Curve fitting and pIC50 estimations are carried out using a four-parameter logistic model in Morphit.

For series [2], the target named is T2, CYP2C8 (Homo sapiens, UniProt P10632).
T2 construct: purchased Life Technologies PV6138; host or cells: Baculosomes
T2 sequence (P10632 1-490): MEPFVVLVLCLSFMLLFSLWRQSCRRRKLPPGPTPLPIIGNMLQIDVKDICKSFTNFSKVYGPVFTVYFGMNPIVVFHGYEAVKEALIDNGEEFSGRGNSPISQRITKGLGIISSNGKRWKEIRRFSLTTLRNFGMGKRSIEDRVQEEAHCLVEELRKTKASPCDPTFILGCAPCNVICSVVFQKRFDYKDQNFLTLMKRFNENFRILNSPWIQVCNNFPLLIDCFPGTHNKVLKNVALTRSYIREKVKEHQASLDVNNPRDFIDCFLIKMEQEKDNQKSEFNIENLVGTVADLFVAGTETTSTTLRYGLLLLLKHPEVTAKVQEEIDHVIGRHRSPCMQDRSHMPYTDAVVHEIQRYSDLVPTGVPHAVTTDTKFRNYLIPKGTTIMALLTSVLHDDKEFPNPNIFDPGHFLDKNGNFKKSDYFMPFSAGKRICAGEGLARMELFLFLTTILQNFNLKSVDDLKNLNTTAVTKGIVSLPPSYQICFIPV
Kind of series: CYP450 inhibition, fluorescent probe substrate. The series is classed as in vitro ADME. On the procedure: as §1, §2, §3, §4, §5, §6, §7, §8, §9, §10

Setting [3] is: recombinant human isoenzyme, n=2, read-out: Inhibition of CYP2B6, IC50.
[4] abbreviates: recombinant human isoenzyme, n=2, read-out: Inhibition of CYP2C8, IC50.

Where two headings read alike, the source gives them in different places.

Broadly, the IC50 is the concentration needed to halve the response being measured.

`COC(=O)c1ccc2c(c1)CC(N)C2` (stereo not drawn) [CMP-405, 2-aminoindane-5-methylcarboxylate]: the IC50 in series [1] (setting [3]) and in series [2] (setting [4]) was more than 50 µM throughout.
As to `COC(=O)c1cc2c(cc1OC)CC(N)C2` (stereo not drawn) [CMP-401], the IC50 in series [1] (setting [3]) and in series [2] (setting [4]) was more than 50 µM in each case.
Regarding `COc1ccc2c(c1)CC(N)C2` (stereo not drawn) [MEAI, 5-methoxy-2-aminoindane], the IC50 in series [1] and in series [2] was more than 50 µM throughout.
For `COc1cc2c(cc1C)CC(N)C2` (stereo not drawn) [MMAI, 5-methoxy-6-methyl-2-aminoindane], the IC50 in series [1] and in series [2] was more than 50 µM in each case.
Turning to `COC(=O)COc1ccc2c(c1)CC(N)C2` (stereo not drawn) [CMP-402], the IC50 in series [1] (setting [3]) and in series [2] (setting [4]) was more than 50 µM throughout.
On to `CNC(C)Cc1ccc2c(c1)OCO2` (stereo not drawn) [MDMA], for which the IC50 in series [1] (setting [3]) and in series [2] (setting [4]) was more than 50 µM each time.
